For one compound, activity results are on record in article PMC6891286, “Towards the Development of an In vivo Chemical Probe for Cyclin G Associated Kinase (GAK)” (Molecules, 2019).

The subject of one test is FLT3(ITD,F691L). Put plainly: KINOMEscan. Type of test: binding, human. Conditions: 35 at 1 µM; read-out: % inhibition. How it is done: (§1) KinomeScan Assay on 35 was performed as previously described at EuroFins DiscoverX (Fremont, CA, USA).
The subject of the next test is EGFR(L747-T751del,Sins). Put plainly: KINOMEscan. The class given is binding, human. Conditions: 35 at 1 µM; read-out: % inhibition. As to the method: as §1

For the compound `Brc1ccc2nccc(Nc3ccc4cn[nH]c4c3)c2c1` [Compound 35, 6-Bromo-N-(1H-indazol-6-yl)quinolin-4-amine], the activity with FLT3(ITD,F691L) and in the test on EGFR(L747-T751del,Sins) was 100% each time.
